Measurements from publication PMC11279468, “Exploring a New Generation of Pyrimidine and Pyridine Derivatives as Anti-Influenza Agents Targeting the Polymerase PA–PB1 Subunits Interaction” (Pharmaceutics, 2024).
Like-named read-outs stand apart in the source and are kept apart here.

Key:
[1] = system: Influenza virus strain A/PR/8/34 (H1N1); experiment: microbe, parasite or virus in culture; conditions: unidentified influenza virus, MDCK, read-out: EC50 (PRA)
[2] = Cytotoxicity assay (MTT) in MDCK cells
Procedure: (§1) The cytotoxicity of compounds was tested in MDCK cells using the 3-(4,5-dimethylthiazol-2-yl)-2,5-diphenyl tetrazolium bromide (MTT) method, as previously reported [32]. Briefly, MDCK cells (seeded at a density of 2 × 10^4 per well) were grown in 96-well plates for 24 h and then treated with serial dilutions of test compounds, or DMSO as a control, in DMEM supplemented with 10% FBS. After incubation at 37 °C for 48 h, 5 mg/mL of MTT (Sigma, Tokyo, Japan) in PBS was added into each well and incubated at 37 °C for a further 4 h. Successively, a solubilization solution was added to lyse the cells and incubated overnight at 37 °C. Finally, optical density was read at the wavelength of 570 nm on a microtiter plate reader (MultiSkan FC, ThermoFisher Scientific).

[3] = system: Influenza virus strain A/PR/8/34 (H1N1); conditions: plaque reduction assay in MDCK cells; cited from earlier work
[4] = system: HEK 293T cells; conditions: cited from earlier work
[5] = target: T1, PA–PB1 interaction (6His-PA(239–716) / GST-PB1(1–25)) (Influenza A virus, UniProt P03433)
[6] = system: MDCK cells; conditions: cited from earlier work
[7] = system: Influenza virus strain A/PR/8/34 (H1N1)
[8] = in vitro; conditions: dog
Procedure: as §1

[9] = target: T1, PA–PB1 interaction (6His-PA(239–716) / GST-PB1(1–25)); experiment: biochemical; assay type: binding
[10] = system: MDCK cells
Procedure: as §1

[11] = system: MDCK cells; experiment: Cytotoxicity assay (MTT) in MDCK cells; conditions: read-out: CC50 (MDCK Cells); MTT assay, MDCK cells, 48 h; 50% decrease in cell viability
Procedure: as §1

[12] = read-out: IC50 (ELISA PA–PB1); ELISA PA–PB1 interaction; cited from earlier work

Compound	EC50 [1] [µM]	CC50 at 48 h [8] [µM]	IC50 [9] [µM]	melting point [°C]	other results
NC(=O)c1ncn(C2O[C@H](CO)[C@@H](O)[C@H]2O)n1 (stereo partly drawn) [RBV, 1-D-ribofuranosyl-1,2,4-triazole-3-carboxamide, reference compound]	12.8 ± 3.2				CC50 at 48 h ([2]; dog, MDCK cells): > 250 µM
CCC(C)C(NC(=O)CSc1nc(-c2ccccc2)cc(-c2ccc(C)cc2)c1C#N)C(=O)OC (stereo not shown) [Compound 1b]					EC50 [3]: 39 ± 2 µM; CC50 [4]: 229 µM; IC50 ([5]; read-out: IC50 (ELISA PA–PB1); ELISA-based PA–PB1 interaction assay; cited from earlier work): 36 ± 3 µM; CC50 [6]: > 250 µM
CSCC[C@H](N)C(=O)N[C@@H](CC(=O)O)C(=O)N[C@H](C(=O)N[C@@H](CC(N)=O)C(=O)N1CCC[C@H]1C(=O)N[C@H](C(=O)N[C@@H](CC(C)C)C(=O)N[C@@H](CC(C)C)C(=O)N[C@@H](Cc1ccccc1)C(=O)N[C@@H](CC(C)C)C(=O)N[C@@H](CCCCN)C(=O)N[C@H](C(=O)N1CCC[C@H]1C(=O)N[C@@H](C)C(=O)N[C@@H](CCC(N)=O)C(=O)N[C@@H](Cc1ccc(O)cc1)C(=O)NCC(=O)N[C@@H](CCCNC(=N)N)C(=O)N[C@@H](CCCCN)C(=O)N[C@@H](CCCCN)C(=O)N[C@@H](CCCNC(=N)N)C(=O)N[C@@H](CCCNC(=N)N)C(=O)N[C@@H](CCC(N)=O)C(=O)N[C@@H](CCCNC(=N)N)C(=O)N[C@@H](CCCNC(=N)N)C(=O)N[C@@H](CCCNC(=N)N)C(=O)N1CCC[C@H]1C(=O)N1CCC[C@H]1C(=O)O)C(C)C)[C@@H](C)O)C(C)C [PB1(1–15)-Tat peptide]					CC50 [2]: > 250 µM; EC50 ([7]; Influenza virus strain A/PR/8/34, 24 h): 49.7 ± 5.1 µM
Cc1cccc(NC(=O)CSc2cc(-c3ccccc3)cc(-c3ccccc3)n2)c1 [Compound 1e]					EC50 [3]: 7.3 ± 1.3 µM; IC50 [5, 12]: 52.6 ± 9 µM; CC50 [6]: > 250 µM
COC(=O)[C@@H](NC(=O)CSc1nc(-c2ccc(F)cc2)cc(-c2ccc(F)cc2)n1)C(C)C [Compound 3e, Methyl (2-((4,6-bis(4-fluorophenyl)pyrimidin-2-yl)thio)acetyl)-L-valinate]	> 100	> 250	> 200	174 to 175	
Cc1cccc(NC(=O)CSc2cc(-c3ccccc3)cc(Sc3ccccc3)n2)c1 [Compound 2m, 2-{[4-Phenyl-6-(phenylthio)pyridin-2-yl]thio}-N-(m-tolyl)acetamide]	32.3 ± 3.2	> 250	141 ± 44	122 to 123	
COC(=O)[C@@H](NC(=O)CSc1nc(-c2ccccc2)cc(-c2ccc(F)cc2)n1)C(C)C [Compound 3a, Methyl (2-((4-(4-fluorophenyl)-6-phenylpyrimidin-2-yl)thio)acetyl)-L-valinate]	> 100	234 ± 19	> 200	152 to 153	
Cc1cccc(NC(=O)CSc2nc(-c3ccccc3)cc(-c3cccc4ccccc34)n2)c1 [Compound 2f, 2-{[4-(Naphthalen-1-yl)-6-phenylpyrimidin-2-yl)thio)-N-(m-tolyl)acetamide]	21.1 ± 8	> 250	> 200	147 to 148	activity as PA–PB1 disruptors (in words) [9]: lack of activity as PA–PB1 disruptors
CC[C@H](C)[C@H](NC(=O)CSc1nc(-c2ccccc2)cc(-c2ccc(F)cc2)n1)C(=O)OC [Compound 3b, Methyl (2-((4-(4-fluorophenyl)-6-phenylpyrimidin-2-yl)thio)acetyl)-L-isoleucinate]	> 100	> 250	> 200	94 to 95	
Cc1ccc(-c2cc(-c3ccccc3)nc(SCC(=O)Nc3cccc(C)c3)c2C#N)cc1 [Compound 1a]					IC50 ([5]; ELISA PA–PB1 interaction; read-out: IC50 (ELISA PA–PB1); cited from earlier work): 80 µM
Cc1cccc(NC(=O)CSc2nc(-c3ccc(C(F)(F)F)cc3)cc(-c3ccc(C(F)(F)F)cc3)n2)c1 [Compound 1c]					EC50 [3]: 26.5 ± 4.3 µM; CC50 [4]: > 250 µM; IC50 [5, 12]: > 200 µM; CC50 [6]: > 250 µM
Cc1cccc(NC(=O)CSc2nc(C(=O)Nc3ccccc3)cc(-c3ccccc3)n2)c1 [Compound 2l, 2-{[2-oxo-2-(m-tolylamino)ethyl]thio}-N,6-diphenylpyrimidine-4-carboxamide]	13 ± 5.5	46.3 ± 10.4	125 ± 37	181 to 182	cytotoxicity (in words) [10]: high cytotoxicity
Cc1cccc(NC(=O)CSc2nc(Sc3ccccc3)cc(-c3ccc(Cl)cc3)n2)c1 [Compound 2j, 2-{[4-(4-Chlorophenyl)-6-(phenylthio)pyrimidin-2-yl]thio}-N-(m-tolyl)acetamide]	32.9 ± 4.1	16 ± 4.2	> 200	150 to 154	cytotoxicity (in words) [10]: high cytotoxicity
CCC(CC)O[C@@H]1C=C(C(=O)O)C[C@H](N)[C@H]1NC(C)=O [OSC, oseltamivir carboxylate]					CC50 [11]: > 250 µM; EC50 ([7]; read-out: EC50 (PRA)): 0.04 ± 0.01 µM
Cc1cccc(NC(=O)CSc2nc(-c3ccccc3)cc(-c3ccc(Cl)cc3)n2)c1 [Compound 2c, 2-{[4-(4-Chlorophenyl)-6-phenylpyrimidin-2-yl]thio}-N-(m-tolyl)acetamide]	45.5 ± 2.1	> 250	86 ± 5.3	204 to 206	
Cc1cccc(NC(=O)CSc2nc(-c3ccccc3)cc(-c3ccc(F)cc3)n2)c1 [Compound 2d, 2-{[4-(4-Fluorophenyl)-6-phenylpyrimidin-2-yl]thio}-N-(m-tolyl)acetamide]	2.8 ± 0.6	> 250	90.1 ± 30.2	186 to 190	antiviral activity relative to RBV [7]: almost five-fold more active than RBV
Cc1cccc(NC(=O)CSc2cc(-c3ccc(Cl)cc3)cc(Sc3ccccc3)n2)c1 [Compound 2n, 2-{[4-(4-chlorophenyl)-6-(phenylthio)pyridin-2-yl]thio}-N-(m-tolyl)acetamide]	62.9 ± 13.2	> 250	87 ± 15.7	93 to 95	
Cc1cccc(NC(=O)CSc2nc(-c3ccc(F)cc3)cc(-c3cccc4ccccc34)n2)c1 [Compound 2h, 2-{[4-(4-Fluorophenyl)-6-(1-naphthyl)pyrimidin-2-yl]thio}-N-(3-methylphenyl)acetamide]	14.8 ± 1.6	> 250	> 200	145 to 147	activity as PA–PB1 disruptors (in words) [9]: lack of activity as PA–PB1 disruptors
COC(=O)[C@H](Cc1c[nH]cn1)NC(=O)CSc1nc(-c2ccc(F)cc2)cc(-c2ccc(F)cc2)n1 [Compound 3h, Methyl (2-((4,6-bis(4-fluorophenyl)pyrimidin-2-yl)thio)acetyl)-L-histidinate]	> 100	> 250	108 ± 14	107 to 108	
Cc1cccc(NC(=O)CSc2nc(Sc3ccccc3)cc(-c3ccc(F)cc3)n2)c1 [Compound 2k]	16.4 ± 1.9	48.2 ± 2.5	159 ± 29	146 to 147	cytotoxicity (in words) [10]: high cytotoxicity
Cc1cccc(NC(=O)CSc2nc(-c3ccccc3)cc(-c3ccccc3)n2)c1 [Compound 1d]					EC50 [3]: 3.5 ± 0.5 µM; CC50 [4]: 22.3 µM; IC50 [5, 12]: 165 ± 18 µM; CC50 [6]: 10.1 ± 1.7 µM
Cc1cccc(NC(=O)CSc2nc(-c3ccc(Cl)cc3)cc(-c3cccc4ccccc34)n2)c1 [Compound 2g, 2-{[4-(4-Chlorophenyl)-6-(naphthalen-1-yl)pyrimidin-2-yl]thio}-N-(m-tolyl)acetamide]	> 100	> 250	> 200	103 to 107	
Cc1cccc(NC(=O)CSc2nc(-c3ccc(Cl)cc3)cc(-c3ccc(Cl)cc3)n2)c1 [Compound 2a, 2-{[4,6-Bis(4-chlorophenyl)pyrimidin-2-yl]thio}-N-(m-tolyl)acetamide]	> 100	> 250	70.8 ± 19.5	225 to 227	
